This assay addresses T1, human 4lg B7-H3 (Homo sapiens, UniProt Q5ZPR3).
T1 sequence (Q5ZPR3 29-534): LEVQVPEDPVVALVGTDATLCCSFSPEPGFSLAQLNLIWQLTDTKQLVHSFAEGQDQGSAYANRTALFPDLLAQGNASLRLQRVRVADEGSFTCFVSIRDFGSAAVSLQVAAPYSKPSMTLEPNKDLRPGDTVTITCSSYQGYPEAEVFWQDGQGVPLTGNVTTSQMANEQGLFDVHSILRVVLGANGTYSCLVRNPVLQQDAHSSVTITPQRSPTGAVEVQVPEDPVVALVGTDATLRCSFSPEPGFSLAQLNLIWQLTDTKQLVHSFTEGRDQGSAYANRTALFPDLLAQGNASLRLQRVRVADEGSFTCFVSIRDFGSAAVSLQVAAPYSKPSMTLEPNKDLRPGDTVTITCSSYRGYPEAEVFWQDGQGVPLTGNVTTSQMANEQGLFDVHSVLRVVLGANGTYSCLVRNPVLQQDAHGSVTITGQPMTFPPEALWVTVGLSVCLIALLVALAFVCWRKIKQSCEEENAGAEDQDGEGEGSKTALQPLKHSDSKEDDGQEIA
The experiment in a line: Affinity determination by surface plasmon resonance (SPR) to 4Ig B7-H3. The settings on record: 4Ig B7-H3. In general terms: Surface plasmon resonance follows binding to a sensor surface in real time, without labels.

[1] abbreviates: SPR KD—25° C., 25° C. flow cell temperature.

Starred links: 1 amine or outer side, 2 acyl side, 3 side chain; linkers in the order of their positions; H or OH if unused. Positions of bridges follow the written chain, without caps; N, C: chain ends. Non-standard residues stand in square brackets, D forms with d. Residues, ends and D or L forms follow the SMILES beside them. *: point of attachment. Ala(piperidin-4-yl) = O=C([C@H](CC1CCN([*:3])CC1)N[*:1])[*:2]; DOTA = O=C(O)CN1CCN(CC(=O)O)CCN(CC(=O)*)CCN(CC(=O)O)CC1; Trp(5-F) = N[C@@H](Cc1c[nH]c2ccc(F)cc12)C(=O)O; Phe(3R-Me) = C[C@H](c1ccccc1)[C@H](N)C(=O)O; Phe(3-F) = N[C@@H](Cc1cccc(F)c1)C(=O)O; 1Nal = N[C@@H](Cc1cccc2ccccc12)C(=O)O; Ala(4-THP) = N[C@@H](CC1CCOCC1)C(=O)O; hTyr = N[C@@H](CCc1ccc(O)cc1)C(=O)O; Val(3-OH) = CC(C)(O)[C@H](N)C(=O)O; 4Pal = N[C@@H](Cc1ccncc1)C(=O)O; Abu(4-CN) = N#CCC[C@H](N)C(=O)O; Tle = CC(C)(C)[C@H](N)C(=O)O; hLeu = CC(C)CC[C@H](N)C(=O)O; NMeS = CN[C@@H](CO)C(=O)O Where only a bound is given, the exact number is not on record here.

As for `CC(=O)N[C@@H](CCC(C)C)C(=O)N[C@@H](Cc1ccc(O)cc1)C(=O)N[C@H]1CSSC[C@@H](C(=O)N[C@@H](Cc2c[nH]c3ccc(F)cc23)C(=O)N[C@@H](Cc2cccc(F)c2)C(=O)N[C@H](C(=O)N[C@H](CCCCNC(=O)CN2CCN(CC(=O)O)CCN(CC(=O)O)CCN(CC(=O)O)CC2)C(N)=O)[C@@H](C)O)NC(=O)[C@H](Cc2ccc(O)cc2)NC(=O)[C@H](C(C)C)NC(=O)[C@H](CC(=O)O)NC(=O)[C@H](Cc2ccc(O)cc2)NC(=O)[C@H](CCCCN)NC(=O)CNC(=O)[C@H](C(C)C)NC1=O` [compound 173, Ac-hLeu-Y-C-V-G-K-Y-D-V-Y-C-5FW-3FPhe-Thr-dLys(DOTA)-CONH2] (Ac-[hLeu]YCVGKYDVYC[Trp(5-F)][Phe(3-F)]T[dK](DOTA)-NH2; disulfide 3-11), the Kd (in general, a measure of binding affinity in units of concentration) under setting [1] is less than 1 nM.
`CC(=O)N[C@@H](CCC(C)C)C(=O)N[C@@H](Cc1ccc(O)cc1)C(=O)N[C@H]1CSSC[C@@H](C(=O)N[C@@H](Cc2c[nH]c3ccc(F)cc23)C(=O)N[C@@H](Cc2ccccc2)C(=O)N[C@H](C(=O)N[C@H](CCCCNC(=O)CN2CCN(CC(=O)O)CCN(CC(=O)O)CCN(CC(=O)O)CC2)C(N)=O)[C@@H](C)O)NC(=O)[C@H](Cc2ccc(O)cc2)NC(=O)[C@H](C(C)C)NC(=O)[C@H](CC(=O)O)NC(=O)[C@H](Cc2ccncc2)NC(=O)[C@H](CCCCN)NC(=O)CNC(=O)[C@H](C(C)C)NC1=O` [compound 240, Ac-hLeu-Y-C-V-G-K-4PyA-D-V-Y-C-5FW-F-Thr-dLys(DOTA)-CONH2] (Ac-[hLeu]YCVGK[4Pal]DVYC[Trp(5-F)]FT[dK](DOTA)-NH2; disulfide 3-11) gave a Kd under setting [1] of less than 1 nM.
The molecule `CC(=O)N[C@@H](CCC(C)C)C(=O)N[C@@H](Cc1ccc(O)cc1)C(=O)N[C@H]1CSSC[C@@H](C(=O)N[C@@H](Cc2c[nH]c3ccc(F)cc23)C(=O)N[C@H](C(=O)N[C@H](C(=O)N[C@H](CCCCNC(=O)CN2CCN(CC(=O)O)CCN(CC(=O)O)CCN(CC(=O)O)CC2)C(=O)O)C(C)(C)O)[C@H](C)c2ccccc2)NC(=O)[C@H](Cc2ccc(O)cc2)NC(=O)[C@H](C(C)C)NC(=O)[C@H](CC(=O)O)NC(=O)[C@H](CC2CCOCC2)NC(=O)[C@H](CC2CCNCC2)NC(=O)CNC(=O)[C@H](C(C)(C)C)NC1=O` [compound 434, Ac-hLeu-Y-C-Tbg-G-PipAla-ThpA-D-V-Y-C-5FW-[(2S, 3R)beta-Me-Phe]-hydroxyVal-dLys(DOTA)-COOH] (Ac-[hLeu]YC[Tle]G[Ala(piperidin-4-yl)][Ala(4-THP)]DVYC[Trp(5-F)][Phe(3R-Me)][Val(3-OH)][dK](DOTA)-OH; disulfide 3-11) yielded a Kd (SPR KD—37° C., 37° C. flow cell temperature) of less than 1 nM.
`CC(=O)N[C@@H](CCC(C)C)C(=O)N[C@@H](Cc1ccc(O)cc1)C(=O)N[C@H]1CSSC[C@@H](C(=O)N[C@@H](Cc2c[nH]c3ccc(F)cc23)C(=O)N[C@@H](Cc2ccccc2)C(=O)N[C@H](C(=O)N[C@H](CCCCNC(=O)CN2CCN(CC(=O)O)CCN(CC(=O)O)CCN(CC(=O)O)CC2)C(N)=O)[C@@H](C)O)NC(=O)[C@H](Cc2ccc(O)cc2)NC(=O)[C@H](C(C)C)NC(=O)[C@H](CC(=O)O)NC(=O)[C@H](CCc2ccc(O)cc2)NC(=O)[C@H](CCCCN)NC(=O)CNC(=O)[C@H](C(C)C)NC1=O` [compound 167, Ac-hLeu-Y-C-V-G-K-hTyr-D-V-Y-C-5FW-F-Thr-dLys(DOTA)-CONH2] (Ac-[hLeu]YCVGK[hTyr]DVYC[Trp(5-F)]FT[dK](DOTA)-NH2; disulfide 3-11): the Kd under setting [1] lay in the range of 1 to 10 nM.
Same read-out and setting: under `CC(=O)N[C@@H](CCC(C)C)C(=O)N[C@@H](Cc1ccc(O)cc1)C(=O)N[C@H]1CSSC[C@@H](C(=O)N[C@@H](Cc2cccc3ccccc23)C(=O)N[C@@H](Cc2ccccc2)C(=O)N(C)[C@@H](CO)C(=O)N[C@H](CCCCNC(=O)CN2CCN(CC(=O)O)CCN(CC(=O)O)CCN(CC(=O)O)CC2)C(N)=O)NC(=O)[C@H](CCC#N)NC(=O)[C@H](C(C)C)NC(=O)[C@H](CC(=O)O)NC(=O)[C@H](Cc2ccncc2)NC(=O)[C@H](CCCCN)NC(=O)CNC(=O)[C@H](C(C)(C)C)NC1=O` [compound 221, Ac-hLeu-Y-C-Tbg-G-K-4PyA-D-V-CyanoButric-C-1Nal-F-NMeSer-dLys(DOTA)-CONH2] (Ac-[hLeu]YC[Tle]GK[4Pal]DV[Abu(4-CN)]C[1Nal]F[NMeS][dK](DOTA)-NH2; disulfide 3-11) stands 100 to 300 nM.
